The subject of one data set is HuNoV. Nature of the data set: HuNoV whole-genome sequencing of longitudinal patient stool samples. Set-up: species or system human. From the text:
Stool samples were collected from the patients. Full-length HuNoV genome sequences were obtained from samples using SureSelectXT target enrichment and Illumina sequencing. For each patient, a unique patient reference was generated by mapping the remaining reads of the first sample to the genotype reference from GenBank using bwa-mem. Reads from the subsequent samples of the same patient were mapped to this patient reference. Consensus sequences were aligned using MAFFT [58]. Only genomes with >80% genome coverage and a mean read depth of 100 or above were included in downstream analysis. Minority allele variants with a frequency of above 2% and a minimum of 2 supporting reads were identified at sites with a read depth of ≥5 using VarScan. For plotting polymorphism frequency, we have determined Watterson's theta which normalises for reading depth. Maximum likelihood phylogenies were constructed using RAxML [13], with the GTR model and 1000 bootstrap replicates. General data processing was carried out in R 3.6.1 using Rstudio 1.2. with the tidyverse family of packages (v1.2.1). Figures were made using the ggplot2 package.

The nature of data set [1]: Favipiravir plasma trough level monitoring in patients (UPLC-MS/MS). Type of data set: in vivo, human. The procedure:
Plasma was isolated from patient blood samples collected in EDTA. Frozen plasma samples were shipped to Laboratoire de Pharmacocinétique-Toxicologie, […] La Timone, Aix-Marseille Université, Marseille, France for favipiravir concentration analysis. The quantification of favipiravir in thawed plasma samples was performed by ultra-performance liquid chromatography coupled with tandem mass spectrometry (UPLC-MS/MS) method (UPLC-TQD, Waters, USA) with a lower limit of quantification of 0.5 μg/mL [34]. Validation of the assay was performed in accordance with the 2012 EMA guidelines and the ISO15189 guidelines. Model parameter estimation, model simulation properties (visual predictive check) and dose simulations were assessed using […]2 (2.0.6) and rxode2 (2.0.7) in R (4.2.0), as described elsewhere.

Data set [2] can be described thus: Adverse events during off-label treatment of patients. Type of data set: in vivo, human.

“And” between values parts separate entries of the source, which are not always exact repeats. Equal values may be shown once.

On to `NC(=O)c1nc(F)c[nH]c1=O` [favipiravir], for which the “Favipiravir-associated viral sequence changes” value is “accumulation of A to G and T to C sequence changes” in the data set on HuNoV (P1, P2 and P4, coinciding with periods of favipiravir treatment, reducing after cessation); “without evidence of accumulation of A to G and T to C favipiravir-associated sequence changes” in the data set on HuNoV (P3, six samples). For the same molecule, the “Favipiravir plasma trough level” value in data set [1] (P1, 200 mg TDS (8-hourly, 51 mg/kg/day), average at month four) was 10.0 µg/mL; in data set [1] (P1, 400 mg TDS (8-hourly, 97 mg/kg/day)), 154 µg/mL and 154.0 µg/mL; in data set [1] (P4, 400 mg TDS (8-hourly, 67 mg/kg/day)), 159 µg/mL and 159.0 µg/mL. Also, the Adverse event result in data set [2] (P1, favipiravir 200 mg 8-hourly + nitazoxanide 200 mg 12-hourly, suspected to be drug-induced, several medications discontinued) is “conjugated hyperbilirubinaemia”; in data set [2] (P3, favipiravir 12-hourly 400 mg increased to 800 mg, transaminitis did not recur) it was “nail discolouration and frequent headaches”; in data set [2] (P3, favipiravir 12-hourly 1200 mg, discontinued after one month), “progressing transaminitis”; in data set [2] (P4, after 2 months of favipiravir 400 mg 8-hourly + nitazoxanide, nail discolouration reversed after discontinuation) it was “nail discolouration and intermittent jaundice”. Also, in data set [2] (P1, restarted favipiravir 400 mg 8-hourly + nitazoxanide 200 mg 12-hourly), the “Recurrence of conjugated hyperbilirubinaemia” value was “did not recur”.

The values above are taken from publication PMC11933534, “Favipiravir induces HuNoV viral mutagenesis and infectivity loss with clinical improvement in immunocompromised patients” (Clinical Immunology (Orlando, Fla.), 2024).
